Reference: the NIST ThermoML archive (doi:10.1016/j.fluid.2012.08.002)

Experiment: xn = mol fraction of the nth substance listed
Conditions: 101 kPa, Liquid; for speed of sound: Sing-around technique in a fixed-path interferometer; for mass density: Vibrating tube method

CCCCCCn1cc[n+](C)c1.F[P-](F)(F)(F)(F)F [1-hexyl-3-methylimidazolium hexafluorophosphate] + COCCO
Conditions | mass density [kg/m3] | speed of sound [m/s]
288.15 K, x1 = 0.0503 | 1020.76 | 1399.2
288.15 K, x1 = 0.1092 | 1067.45 | 1411
288.15 K, x1 = 0.2006 | 1121.27 | 1419.8
288.15 K, x1 = 0.3032 | 1165.23 | 1422.9
288.15 K, x1 = 0.4013 | 1197.38 | 1424.7
288.15 K, x1 = 0.5017 | 1223.62 | 1427.5
288.15 K, x1 = 0.6054 | 1245.52 | 1433.9
288.15 K, x1 = 0.7024 | 1262.69 | 1434.3
288.15 K, x1 = 0.8019 | 1277.93 | 1436.7
288.15 K, x1 = 0.9094 | 1292.27 | 1442.3
293.15 K, x1 = 0.0503 | 1016.22 | 1382.5
293.15 K, x1 = 0.1092 | 1062.97 | 1394.8
293.15 K, x1 = 0.2006 | 1116.89 | 1404.6
293.15 K, x1 = 0.3032 | 1160.9 | 1408.6
293.15 K, x1 = 0.4013 | 1193.08 | 1411.3
293.15 K, x1 = 0.5017 | 1219.44 | 1414.5
293.15 K, x1 = 0.6054 | 1241.45 | 1421.2
293.15 K, x1 = 0.7024 | 1258.71 | 1421.4
293.15 K, x1 = 0.8019 | 1273.92 | 1424
293.15 K, x1 = 0.9094 | 1288.2 | 1428.6
298.15 K, x1 = 0.0503 | 1011.72 | 1365.8
298.15 K, x1 = 0.1092 | 1058.47 | 1378.9
298.15 K, x1 = 0.2006 | 1112.46 | 1389.6
298.15 K, x1 = 0.3032 | 1156.56 | 1394.5
298.15 K, x1 = 0.4013 | 1188.79 | 1398
298.15 K, x1 = 0.5017 | 1215.23 | 1401.7
298.15 K, x1 = 0.6054 | 1237.4 | 1407.8
298.15 K, x1 = 0.7024 | 1254.67 | 1408.9
298.15 K, x1 = 0.8019 | 1269.91 | 1411.5
298.15 K, x1 = 0.9094 | 1284.2 | 1415.8
303.15 K, x1 = 0.0503 | 1007.16 | 1349.2
303.15 K, x1 = 0.1092 | 1053.96 | 1362.9
303.15 K, x1 = 0.2006 | 1108.02 | 1374.7
303.15 K, x1 = 0.3032 | 1152.21 | 1380.7
303.15 K, x1 = 0.4013 | 1184.47 | 1385.2
303.15 K, x1 = 0.5017 | 1210.98 | 1389
303.15 K, x1 = 0.6054 | 1233.3 | 1395.1
303.15 K, x1 = 0.7024 | 1250.63 | 1396.7
303.15 K, x1 = 0.8019 | 1265.91 | 1399.4
303.15 K, x1 = 0.9094 | 1280.2 | 1403.3
308.15 K, x1 = 0.0503 | 1002.49 | 1332.7
308.15 K, x1 = 0.1092 | 1049.43 | 1347.1
308.15 K, x1 = 0.2006 | 1103.58 | 1359.9
308.15 K, x1 = 0.3032 | 1147.84 | 1367.3
308.15 K, x1 = 0.4013 | 1180.37 | 1372.3
308.15 K, x1 = 0.5017 | 1206.95 | 1376.4
308.15 K, x1 = 0.6054 | 1229.34 | 1382.4
308.15 K, x1 = 0.7024 | 1246.77 | 1384.5
308.15 K, x1 = 0.8019 | 1262.04 | 1387.4
308.15 K, x1 = 0.9094 | 1276.2 | 1391.3
313.15 K, x1 = 0.0503 | 997.703 | 1316.2
313.15 K, x1 = 0.1092 | 1044.81 | 1331.4
313.15 K, x1 = 0.2006 | 1099.15 | 1345.2
313.15 K, x1 = 0.3032 | 1143.59 | 1353.7
313.15 K, x1 = 0.4013 | 1176 | 1359.4
313.15 K, x1 = 0.5017 | 1202.67 | 1364
313.15 K, x1 = 0.6054 | 1225.28 | 1370
313.15 K, x1 = 0.7024 | 1242.9 | 1372.4
313.15 K, x1 = 0.8019 | 1258.23 | 1375.7
313.15 K, x1 = 0.9094 | 1272.23 | 1379.5
318.15 K, x1 = 0.0503 | 993.086 | 1299.8
318.15 K, x1 = 0.1092 | 1040.18 | 1316
318.15 K, x1 = 0.2006 | 1094.74 | 1330.8
318.15 K, x1 = 0.3032 | 1139.13 | 1340.3
318.15 K, x1 = 0.4013 | 1171.68 | 1346.7
318.15 K, x1 = 0.5017 | 1198.47 | 1351.6
318.15 K, x1 = 0.6054 | 1221.29 | 1357.5
318.15 K, x1 = 0.7024 | 1239.06 | 1360.5
318.15 K, x1 = 0.8019 | 1254.4 | 1364.1
318.15 K, x1 = 0.9094 | 1268.47 | 1368.1

CCCCCCn1cc[n+](C)c1.[Br-] [3-hexyl-1-methyl-1H-imidazolium bromide] + COCCO
Conditions | mass density [kg/m3] | speed of sound [m/s]
288.15 K, x1 = 0.0541 | 1003.16 | 1406.2
288.15 K, x1 = 0.1114 | 1033.95 | 1427.1
288.15 K, x1 = 0.2063 | 1075.85 | 1455
288.15 K, x1 = 0.3163 | 1113.65 | 1481.2
288.15 K, x1 = 0.399 | 1136.61 | 1498.5
288.15 K, x1 = 0.5066 | 1160.88 | 1518.9
288.15 K, x1 = 0.5919 | 1177.15 | 1532.1
288.15 K, x1 = 0.7003 | 1194.68 | 1550.1
288.15 K, x1 = 0.8193 | 1210.88 | 1578.5
288.15 K, x1 = 0.905 | 1221.01 | 1610.1
293.15 K, x1 = 0.0541 | 998.827 | 1389.9
293.15 K, x1 = 0.1114 | 1029.8 | 1411.5
293.15 K, x1 = 0.2063 | 1071.89 | 1440.2
293.15 K, x1 = 0.3163 | 1109.92 | 1467.3
293.15 K, x1 = 0.399 | 1132.93 | 1485.4
293.15 K, x1 = 0.5066 | 1157.28 | 1506
293.15 K, x1 = 0.5919 | 1173.58 | 1519.1
293.15 K, x1 = 0.7003 | 1191.1 | 1535.7
293.15 K, x1 = 0.8193 | 1207.23 | 1560
293.15 K, x1 = 0.905 | 1217.37 | 1584.7
298.15 K, x1 = 0.0541 | 994.442 | 1373.6
298.15 K, x1 = 0.1114 | 1025.66 | 1395.9
298.15 K, x1 = 0.2063 | 1067.99 | 1425.3
298.15 K, x1 = 0.3163 | 1106.17 | 1454
298.15 K, x1 = 0.399 | 1129.03 | 1472.5
298.15 K, x1 = 0.5066 | 1153.7 | 1493.4
298.15 K, x1 = 0.5919 | 1169.99 | 1506.4
298.15 K, x1 = 0.7003 | 1187.69 | 1521.9
298.15 K, x1 = 0.8193 | 1203.66 | 1543.4
298.15 K, x1 = 0.905 | 1213.6 | 1563.8
303.15 K, x1 = 0.0541 | 990.104 | 1357.4
303.15 K, x1 = 0.1114 | 1021.6 | 1380.5
303.15 K, x1 = 0.2063 | 1064.1 | 1410.7
303.15 K, x1 = 0.3163 | 1102.4 | 1440.7
303.15 K, x1 = 0.399 | 1125.44 | 1459.6
303.15 K, x1 = 0.5066 | 1150.12 | 1481
303.15 K, x1 = 0.5919 | 1166.5 | 1494.1
303.15 K, x1 = 0.7003 | 1184.24 | 1509.1
303.15 K, x1 = 0.8193 | 1200.22 | 1528.5
303.15 K, x1 = 0.905 | 1210.1 | 1545.7
308.15 K, x1 = 0.0541 | 985.747 | 1341.1
308.15 K, x1 = 0.1114 | 1017.43 | 1365.1
308.15 K, x1 = 0.2063 | 1060.19 | 1396.3
308.15 K, x1 = 0.3163 | 1098.64 | 1427.5
308.15 K, x1 = 0.399 | 1121.85 | 1446.7
308.15 K, x1 = 0.5066 | 1146.54 | 1468.7
308.15 K, x1 = 0.5919 | 1162.92 | 1482
308.15 K, x1 = 0.7003 | 1180.7 | 1496.7
308.15 K, x1 = 0.8193 | 1196.79 | 1514.7
308.15 K, x1 = 0.905 | 1206.71 | 1529.7
313.15 K, x1 = 0.0541 | 981.397 | 1324.9
313.15 K, x1 = 0.1114 | 1013.1 | 1349.9
313.15 K, x1 = 0.2063 | 1056.1 | 1382.4
313.15 K, x1 = 0.3163 | 1094.88 | 1414.3
313.15 K, x1 = 0.399 | 1118.18 | 1433.9
313.15 K, x1 = 0.5066 | 1142.96 | 1456.5
313.15 K, x1 = 0.5919 | 1159.44 | 1470.3
313.15 K, x1 = 0.7003 | 1177.16 | 1484.8
313.15 K, x1 = 0.8193 | 1193.35 | 1501.8
313.15 K, x1 = 0.905 | 1203.34 | 1515.2
318.15 K, x1 = 0.0541 | 976.988 | 1308.7
318.15 K, x1 = 0.1114 | 1009.12 | 1335.8
318.15 K, x1 = 0.2063 | 1052.25 | 1369.4
318.15 K, x1 = 0.3163 | 1091.12 | 1401.5
318.15 K, x1 = 0.399 | 1114.51 | 1421.1
318.15 K, x1 = 0.5066 | 1139.37 | 1444.5
318.15 K, x1 = 0.5919 | 1155.95 | 1458.7
318.15 K, x1 = 0.7003 | 1173.69 | 1473.2
318.15 K, x1 = 0.8193 | 1189.89 | 1489.7
318.15 K, x1 = 0.905 | 1199.95 | 1501.9
